# Test results taken from PMC6713091, “Exploring new structural features of the 4-[(3-methyl-4-aryl-2,3-dihydro-1,3-thiazol-2-ylidene)amino]benzenesulphonamide scaffold for the inhibition of human carbonic anhydrases” (Journal of Enzyme Inhibition and Medicinal Chemistry, 2019).
# Columns and labels:
# hCA IX = hCA IX (Homo sapiens, UniProt Q16790); assay: Carbonic anhydrase inhibition assay, hCA IX; assay type: biochemical
# Procedure: (§1) The protein quantity in the column effluents was determined spectrophotometrically at 280 nm. Sodium dodecyl sulphate polyacrylamide gel electrophoresis (SDS-PAGE) was applied with a Bio-Rad Mini Gel system Mini-PROTEINVR system (Hercules, CA), Bio-Rad Laboratories, Inc., China after purification of both CA isoenzymes. Briefly, it was performed in acrylamide for the running (10%) and the stacking gel (3%) contained SDS (0.1%), respectively. Activities of CA isoenzymes were determined according to a method by Verporte et al.[57]. The increase in absorbance of the reaction medium was spectrophotometrically recorded at 348 nm. Also, the quantity of protein was determined at 595 nm according to the Bradford method. Bovine serum albumin was used as standard protein. The IC50 values were obtained from activity (%) versus compounds plots. For calculation of KI values, three different concentrations were used. The Lineweaver–Burk curves were drawn and calculations were realised.
# hCA II = hCA II (Homo sapiens, UniProt P00918); assay: Carbonic anhydrase inhibition assay, hCA II; assay type: biochemical
# Procedure: (§2) The purification of cytosolic CA isoenzymes (CA I and CA II) was previously described with a simple one-step method by a Sepharose-4B-L tyrosine-sulphanilamide affinity chromatography.
# as §1
# hCA I = hCA I (Homo sapiens, UniProt P00915); assay: Carbonic anhydrase inhibition assay, hCA I; assay type: biochemical
# Procedure: as §2, §1
# hCA XII = hCA XII (Homo sapiens, UniProt O43570); assay: Carbonic anhydrase inhibition assay, hCA XII; assay type: biochemical
# Procedure: as §1
# Chain of hCA XII (O43570 25-354): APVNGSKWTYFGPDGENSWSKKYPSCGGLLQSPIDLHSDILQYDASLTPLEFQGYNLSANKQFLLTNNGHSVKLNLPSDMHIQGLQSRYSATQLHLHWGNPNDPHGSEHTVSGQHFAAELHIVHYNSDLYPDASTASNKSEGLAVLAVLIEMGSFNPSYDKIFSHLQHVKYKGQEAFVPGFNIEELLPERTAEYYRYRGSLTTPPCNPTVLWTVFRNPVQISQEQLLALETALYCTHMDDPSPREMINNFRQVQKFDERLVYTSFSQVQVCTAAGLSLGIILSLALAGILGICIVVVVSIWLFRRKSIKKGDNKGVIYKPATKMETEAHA
# Chain of hCA I (P00915 whole entry): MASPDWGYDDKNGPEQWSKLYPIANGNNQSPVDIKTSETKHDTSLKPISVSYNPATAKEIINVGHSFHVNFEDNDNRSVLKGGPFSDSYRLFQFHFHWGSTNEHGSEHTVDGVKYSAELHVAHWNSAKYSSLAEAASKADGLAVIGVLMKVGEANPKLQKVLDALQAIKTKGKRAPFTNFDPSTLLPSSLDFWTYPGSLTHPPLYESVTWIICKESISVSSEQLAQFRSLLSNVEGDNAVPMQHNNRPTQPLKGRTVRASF
Compound,melting point,further results
COc1ccc(-c2cs/c(=N\c3ccc(S(N)(=O)=O)cc3)n2C)cc1 [EMAC8002k],243 to 244 °C,
Cn1c(-c2ccc([N+](=O)[O-])cc2)cs/c1=N\c1ccc(S(N)(=O)=O)cc1 [EMAC8002h],244 to 245 °C,
Cn1c(-c2ccc(C#N)cc2)cs/c1=N\c1ccc(S(N)(=O)=O)cc1 [EMAC8002f],237 to 238 °C,
Cn1c(-c2ccccc2)cs/c1=N\c1ccc(S(N)(=O)=O)cc1 [EMAC8002m],252 to 253 °C,
Cn1c(-c2ccc(-c3ccccc3)cc2)csc1=Nc1ccc(S(N)(=O)=O)cc1 [EMAC8002i],254 to 255 °C,Ki (hCA IX): 1390 nM; Ki (hCA II): 503 nM; Ki (hCA I): 8910 nM; Ki (hCA XII): 9.5 nM; selective index hCA II/hCA XII (hCA XII; ratio of Ki hCA II to Ki hCA XII): higher than 52
Cn1c(-c2cccc([N+](=O)[O-])c2)cs/c1=N\c1ccc(S(N)(=O)=O)cc1 [EMAC8002d],235 to 236 °C,

# More lines, main results first:
melting point,Compound,further results
256 to 259 °C,Cn1c(-c2ccc(Br)cc2)cs/c1=N\c1ccc(S(N)(=O)=O)cc1 [EMAC8002a],
230 to 233 °C,Cn1c(-c2ccc(F)cc2)cs/c1=N\c1ccc(S(N)(=O)=O)cc1 [EMAC8002c],
241 to 242 °C,Cn1c(-c2ccc(Cl)cc2)cs/c1=N\c1ccc(S(N)(=O)=O)cc1 [EMAC8002b],
256 to 257 °C,Cn1c(-c2ccc(Cl)cc2Cl)cs/c1=N\c1ccc(S(N)(=O)=O)cc1 [EMAC8002e],
239 to 240 °C,Cn1c(-c2ccc(F)cc2F)cs/c1=N\c1ccc(S(N)(=O)=O)cc1 [EMAC8002g],
252 to 254 °C,Cc1ccc(-c2cs/c(=N\c3ccc(S(N)(=O)=O)cc3)n2C)cc1 [EMAC8002j],
